Patent publication US7705029B2 (Synta Pharmaceuticals Corp., priority 2004, dated 2010)

The molecules below were run on IL-2 production in a Human Jurkat Cell Line (assay: Inhibition of IL-2 production in PHA-stimulated Jurkat cells (IL-2 ELISA)). Details: Homo sapiens, Jurkat, 20 h, read-out: IC50 (concentration at which IL-2 release is inhibited by 50%).
Type: cell-based
Protocol: Jurkat cells (ATCC, Cat# TIB-152) were grown in RPMI1640 medium (ATCC, Cat# 30-2001) containing 10% of FBS (ATCC, Cat# 30-2020). For compound screening, Jurkat cells were plated in 96-well plates at a density of 0.5 million cells per well in RPMI1640 medium containing 1% of FBS. Then, various concentrations of each test compound were added to the cell plates followed by addition of PHA (Sigma, Cat# L-9017) at a final concentration of 2.5 μg/ml to stimulate IL-2 production. Cells were then incubated at 37° C. (+5% CO2) for 20 hours before ELISA assay. After 20 hours incubation, cell plates were centrifuged at 500-800 g for 5 minutes and the supernatants was collected for IL-2 detection using the human IL-2 ELISA kit purchased from Cell Sciences (Cat# 851.500.020). The ELISA assay for IL-2 production was done in 96-well plates using a protocol provided by Cell Sciences.
The IC50 (i.e., the concentration at which IL-2 release is inhibited by 50%) was determined and the results are shown in the Table. […] The designation “A” means an IC50 less than 0.010 μM; the designation B means an IC50 between 0.010 and 1.0 μM; and the designation “C” mean an IC50 greater than 1 μM.
With `N#CC(=Cc1ccc(-n2cccn2)cc1)c1cc(F)ccc1F` [Compound 24, 2-(2,5-Difluoro-phenyl)-3-(4-pyrazol-1-yl-phenyl)-acrylonitrile] the IC50 was greater than 1 µM.
With `N#CC(=Cc1ccc(-n2nc(C(F)(F)F)cc2OC(F)F)cc1)c1cc(F)ccc1F` [Compound 3, 3-[4-(5-Difluoromethoxy-3-trifluoromethyl-pyrazol-1-yl)-phenyl]-2-(2,5-difluoro-phenyl)-acrylonitrile] the IC50 was 0.01 to 1 µM.
`Cc1cc(C(F)(F)F)n(-c2ccc(C=C(C#N)c3cc(F)cc(F)c3)cc2)n1` [Compound 22, 2-(3,5-Difluoro-phenyl)-3-[4-(3-methyl-5-trifluoromethyl-pyrazol-1-yl)-phenyl]-acrylonitrile] showed an IC50 of 0.01 to 1 µM.
`N#CC(=Cc1ccc(-n2nc(C(F)(F)F)cc2C(F)(F)F)cc1)c1ccc(F)c(F)c1F` [Compound 8, 3-[4-(3,5-Bis-trifluoromethyl-pyrazol-1-yl)-phenyl]-2-(2,3,4-trifluoro-phenyl)-acrylonitrile] was tested, and the IC50 was 0.01 to 1 µM.
With `N#CC(=Cc1ccc(-n2nc(C(F)(F)F)cc2OC(F)F)cc1)c1ccccc1F` [Compound 2, 3-[4-(5-Difluoromethoxy-3-trifluoromethyl-pyrazol-1-yl)-phenyl]-2-(2-fluoro-phenyl)-acrylonitrile] the IC50 was 0.01 to 1 µM.
With `Cc1cc(C(F)(F)F)n(-c2ccc(C=C(C#N)c3ccc(F)c(F)c3)cc2)n1` [Compound 21, 2-(3,4-Difluoro-phenyl)-3-[4-(3-methyl-5-trifluoromethyl-pyrazol-1-yl)-phenyl]-acrylonitrile] the IC50 was 0.01 to 1 µM.
For `N#CC(=Cc1ccc(-n2ccc(C(F)(F)F)n2)cc1)c1ccc(F)cc1F` [Compound 16, 2-(2,4-Difluoro-phenyl)-3-[4-(3-trifluoromethyl-pyrazol-1-yl)-phenyl]-acrylonitrile], the IC50 was greater than 1 µM.
Molecule `N#CC(=Cc1ccc(-n2nc(C(F)(F)F)cc2C(F)(F)F)cc1)C(=O)c1ccc(F)cc1F` [Compound 34, 3-[4-(3,5-Bis-trifluoromethyl-pyrazol-1-yl)-phenyl]-2-(2,4-difluoro-benzoyl)-acrylonitrile] has an IC50 greater than 1 µM.
Work on `N#CC(=Cc1ccc(-n2ccc(C(F)(F)F)n2)cc1)C(=O)c1cccc(F)c1F` [Compound 38, 2-(2,3-Difluoro-benzoyl)-3-[4-(3-trifluoromethyl-pyrazol-1-yl)-phenyl]-acrylonitrile] yielded an IC50 greater than 1 µM.
`N#CC(=Cc1ccc(-n2nc(C(F)(F)F)cc2C(F)(F)F)cc1)c1cc(F)c(F)cc1F` [Compound 12, 3-[4-(3,5-Bis-trifluoromethyl-pyrazol-1-yl)-phenyl]-2-(3,4,6-trifluoro-phenyl)-acrylonitrile] gave an IC50 of 0.01 to 1 µM.
`N#C/C(=C\c1ccc(-n2nc(C(F)(F)F)cc2C(F)(F)F)cc1)C(=O)c1cccc(F)c1F` [Compound 25, 3-[4-(3,5-Bis-trifluoromethyI-pyrazol-1-yl)-phenyl]-2-(2,3-difluoro-benzoyl)-acrylonitrile] showed an IC50 greater than 1 µM.
`N#CC(=Cc1ccc(-n2cccn2)cc1)c1ccccc1` [Compound 23, 2-Phenyl-3-(4-pyrazol-1-yl-phenyl)-acrylonitrile] showed an IC50 greater than 1 µM.
`N#C/C(=C\c1ccc(-n2nc(C(F)(F)F)cc2C(F)(F)F)cc1)c1cccc(F)c1F` [Compound 4, 3-[4-(3,5-Bis-trifluoromethyl-pyrazol-1-yl)-phenyl]-2-(2,3-difluoro-phenyl)-acrylonitrile] showed an IC50 of less than 0.01 µM.
`N#CC(=Cc1ccc(-n2nc(C(F)(F)F)cc2C(F)(F)F)cc1)c1cc(F)ccc1F` [Compound 5, 3-[4-(3,5-Bis-trifluoromethyl-pyrazol-1-yl)-phenyl]-2-(2,5-difluoro-phenyl)-acrylonitrile] gave an IC50 of less than 0.01 µM.
In the case of `N#CC(=Cc1cccc(-n2nc(C(F)(F)F)cc2C(F)(F)F)c1)c1cc(F)ccc1F` [Compound 44, 3-[3-(3,5-Bis-trifluoromethyl-pyrazol-1-yl)-phenyl]-2-(2,5-difluoro-phenyl)-acrylonitrile], the IC50 is reported as greater than 1 µM.
With `N#CC(=Cc1ccc(-n2cccn2)cc1)c1ccccc1F` [Compound 48, 2-(2-Fluoro-phenyl)-3-(4-pyrazol-1-yl-phenyl)-acrylonitrile] the IC50 was greater than 1 µM.
`N#CC(=Cc1ccc(-n2ccc(-c3cccs3)n2)cc1)C(=O)c1ccccc1` [Compound 28, 2-Benzoyl-3-[4-(3-thiophen-2-yl-pyrazol-1-yl)-phenyl]-acrylonitrile] showed an IC50 greater than 1 µM.
`N#CC(=Cc1ccc(-n2nc(C(F)(F)F)cc2C(F)(F)F)cc1)c1ccccc1F` [Compound 6, 3-[4-(3,5-Bis-trifluoromethyl-pyrazol-1-yl)-phenyl]-2-(2-fluoro-phenyl)-acrylonitrile] gave an IC50 of 0.01 to 1 µM.
`N#CC(=Cc1ccc(-n2cccn2)cc1)C(=O)c1ccccc1` [Compound 30, 2-Benzoyl-3-(4-pyrazol-1-yl-phenyl)-acrylonitrile] gave an IC50 greater than 1 µM.
Molecule `Cc1cc(C(F)(F)F)n(-c2ccc(C=C(C#N)c3c(F)cccc3F)cc2)n1` [Compound 20, 2-(2,6-Difluoro-phenyl)-3-[4-(3-methyl-5-trifluoromethyl-pyrazol-1-yl)-phenyl]-acrylonitrile] has an IC50 of 0.01 to 1 µM.
In the case of `Cc1cc(C(F)(F)F)n(-c2ccc(C=C(C#N)C(=O)c3cc(F)ccc3F)cc2)n1` [Compound 40, 2-(2,5-Difluoro-benzoyl)-3-[4-(3-methyl-5-trifluoromethyl-pyrazol-1-yl)-phenyl]-acrylonitrile], the IC50 is reported as greater than 1 µM.
`N#CC(=Cc1cccc(-n2nc(C(F)(F)F)cc2C(F)(F)F)c1)c1cccc(F)c1F` [Compound 43, 3-[3-(3,5-Bis-trifluoromethyl-pyrazol-1-yl)-phenyl]-2-(2,3-difluoro-phenyl)-acrylonitrile] showed an IC50 greater than 1 µM.
Work on `N#CC(=Cc1ccc(-n2ccc(C(F)(F)F)n2)cc1)C(=O)c1ccc(F)cc1F` [Compound 37, 2-(2,4-Difluoro-benzoyl)-3-[4-(3-trifluoromethyl-pyrazol-1-yl)-phenyl]-acrylonitrile] yielded an IC50 greater than 1 µM.
For `N#CC(=Cc1ccc(-n2c(C(F)(F)F)nc3ccccc32)cc1)c1cc(F)ccc1F` [Compound 46, 2-(2,5-Difluoro-phenyl)-3-[4-(2-trifluoromethyl-benzoimidazol-1-yl)-phenyl]-acrylonitrile], the IC50 was 0.01 to 1 µM.
In the case of `N#CC(=Cc1ccc(-n2nc(C(F)(F)F)cc2C(F)(F)F)cc1)c1c(F)ccc(F)c1F` [Compound 9, 3-[4-(3,5-Bis-trifluoromethyl-pyrazol-1-yl)-phenyl]-2-(2,3,6-trifluoro-phenyl)-acrylonitrile], the IC50 is reported as less than 0.01 µM.
`Cc1cc(C(F)(F)F)n(-c2ccc(C=C(C#N)c3cccc(F)c3F)cc2)n1` [Compound 18, 2-(2,3-Difluoro-phenyl)-3-[4-(3-methyl-5-trifluoromethyl-pyrazol-1-yl)-phenyl]-acrylonitrile] showed an IC50 of 0.01 to 1 µM.
Molecule `Cc1cc(C(F)(F)F)n(-c2ccc(C=C(C#N)c3ccc(F)cc3F)cc2)n1` [Compound 19, 2-(2,4-Difluoro-phenyl)-3-[4-(3-methyl-5-trifluoromethyl-pyrazol-1-yl)-phenyl]-acrylonitrile] has an IC50 of 0.01 to 1 µM.
For `N#CC(=Cc1ccc(-n2ccc(-c3ccccc3)n2)cc1)C(=O)c1ccco1` [Compound 31, 2-(Furan-2-carbonyl)-3-[4-(3-phenyl-pyrazol-1-yl)-phenyl]-acrylonitrile], the IC50 was greater than 1 µM.
`N#CC(=Cc1ccc(-n2ccc(C(F)(F)F)n2)cc1)c1cc(F)ccc1F` [Compound 42, 2-(2,5-Difluoro-phenyl)-3-[4-(3-trifluoromethyl-pyrazol-1-yl)-phenyl]-acrylonitrile] showed an IC50 greater than 1 µM.
Molecule `N#CC(=Cc1ccc(-n2ccc(-c3ccccc3)n2)cc1)C(=O)c1cccc(F)c1F` [Compound 35, 2-(2,3-Difluoro-benzoyl)-3-[4-(3-phenyl-pyrazol-1-yl)-phenyl]-acrylonitrile] has an IC50 greater than 1 µM.
`Cc1cc(C(F)(F)F)n(-c2ccc(C=C(C#N)C(=O)c3ccc(F)cc3F)cc2)n1` [Compound 39, 2-(2,4-Difluoro-benzoyl)-3-[4-(3-methyl-5-trifluoromethyl-pyrazol-1-yl)-phenyl]-acrylonitrile] showed an IC50 greater than 1 µM.
`N#CC(=Cc1ccc(-n2nc(C(F)(F)F)cc2C(F)(F)F)cc1)C(=O)c1ccco1` [Compound 33, 3-[4-(3,5-Bis-trifluoromethyl-pyrazol-1-yl)-phenyl]-2-(furan-2-carbonyl)-acrylonitrile] showed an IC50 greater than 1 µM.
`N#C/C(=C\c1ccc(-n2nc(C(F)(F)F)cc2OC(F)F)cc1)c1cccc(F)c1F` [Compound 1] showed an IC50 of 0.01 to 1 µM.
Work on `Cc1ccn(-c2ccc(C=C(C#N)C(=O)c3ccco3)cc2)n1` [Compound 29, 2-(Furan-2-carbonyl)-3-[4-(3-methyl-pyrazol-1-yl)-phenyl]-acrylonitrile] yielded an IC50 greater than 1 µM.
`N#CC(=Cc1ccc(-n2nc(C(F)(F)F)cc2C(F)(F)F)cc1)c1cc(F)c(F)c(F)c1` [Compound 10, 3-[4-(3,5-Bis-trifluoromethyl-pyrazol-1-yl)-phenyl]-2-(3,4,5-trifluoro-phenyl)-acrylonitrile] showed an IC50 of 0.01 to 1 µM.

Same assay, conditions: Jurkat cells, PHA 2.5 μg/ml, 20 hours incubation, human IL-2 ELISA of supernatant; read-out: IC50 (concentration at which IL-2 release is inhibited by 50%)
With `N#CC(=Cc1ccccc1-n1nc(C(F)(F)F)cc1C(F)(F)F)c1cccc(F)c1F` [Compound 14, 3-[2-(3,5-Bis-trifluoromethyl-pyrazol-1-yl)-phenyl]-2-(2,3-difluoro-phenyl)-acrylonitrile] the IC50 was greater than 1 µM.
